Test results published in patent US20120196933A1, “MEXILETINE PRODRUGS” (priority 2010, published 2012).

Columns and labels:
[1] = test system: patients with myotonic dystrophy (type 1); details: 150 tid or 200 mg tid, 7 weeks; cited from earlier work
[2] = test system: patients with myotonic disorders; details: 1200 mg daily tocamide or 600 mg daily mexiletine, three divided doses; cited from earlier work
ADR mouse = experiment: Anti-myotonic effects in the ADR mouse (righting response); type: in vivo; details: oral 5 mg/kg
Experimental: The effects of oral administration of either mexiletine glutamic acid amide at 5, 10 or 20 mg/kg or mexiletine 5 mg/kg on the righting response of a group of three adr/adr mice were examined on three separate days. Each assessment involved placing the individual mice on their back no fewer than seven successive occasions in rapid succession and determining the time to successful righting at various time pre and post dosing (−10, +15, +30, +60, +120 & +180 mins).

[3] = test system: rabbit stomach smooth muscle; experiment: Electrical field stimulated contractions of isolated rabbit stomach smooth muscle; type: cell-based; details: Oryctolagus cuniculus, read-out: ED50 for attenuation of EFS induced contractions
[4] = test system: 9-AC induced myotonia in the rat; experiment: Anti-myotonic effects in 9-anthracene carboxylic acid (9-AC) treated rats (righting time); type: in vivo; details: for Mean ± SEM righting response time: 9-AC 30 mg/kg ip
Experimental: The use of ip injection of 9-anthracene carboxylic acid is known to induce a myotonic state in rats which can then be used to assess the activity of potential anti-myotonic compounds (Villegas-NavarroA et al (1992) Exp. Toxicol. Pathol. 44 34-39).
Groups of four rats were predosed with 30 mg/kg 9-AC (time 0) and ten minutes later their righting time was assessed repeatedly seven times in rapid succession. They were then dosed po with mexiletine or mexiletine glutamic acid amide at 1, 5, 10, 20 or 40 mg/kg and the righting time reassessed at ˜30, 60, 120 and 180 minutes after 9-AC injection. At each dose level, a group of four control animals, given vehicle alone, was used

patients = details: cited from earlier work
sodium channel = details: relative to mexiletine; cited from earlier work

Structure (SMILES): Cc1cccc(C)c1OCC(C)N.Cl (racemic) [Mexiletine hydrochloride, (rac)-1-(2,6-dimethylphenoxy)-2-propanamine hydrochloride]
- Reduction in grip relaxation time [1]: 2 fold
- Increase in the speed of stair step movement [2]: 2.8 fold
- Reduction in the time taken for eye opening [2]: 6 fold
- Reduction of hand opening time [2]: 6.9 fold
- Effects on righting time (ADR mouse): marginal
- Mean ± SEM righting response time (ADR mouse; +15 mins): 7.80 ± 3.72 s
- Mean ± SEM righting response time (ADR mouse; +30 mins): 9.53 ± 5.07 s
- Mean ± SEM righting response time (ADR mouse; +60 mins): 10.5 ± 3.68 s
- Mean ± SEM righting response time (ADR mouse; +120 mins): 12.5 ± 4.98 s
- Mean ± SEM righting response time (ADR mouse; +180 mins): 12.5 ± 4.27 s
- Mean ± SEM righting response time (ADR mouse; −10 mins (pre dosing)): 7.94 ± 1.25 s
- EC50 [3]: 2170 nM
- Coefficient of variation of the response ([4]; 10 mg/kg (same molar dose level), time of maximal effect of 9-AC (+30 mins)): 96%
- Mean ± SEM righting response time ([4]; drug 1 mg/kg po, 9-AC +10 mins (predrug)): 1.96 ± 0.193 s
- Mean ± SEM righting response time ([4]; drug 1 mg/kg po, 9-AC +30 mins): 2.94 ± 0.490 s
- Mean ± SEM righting response time ([4]; drug 1 mg/kg po, 9-AC +60 mins): 1.73 ± 0.165 s
- Mean ± SEM righting response time ([4]; drug 1 mg/kg po, 9-AC +120 mins): 1.17 ± 0.124 s
- Mean ± SEM righting response time ([4]; drug 1 mg/kg po, 9-AC +180 mins): 0.831 ± 0.169 s
- Mean ± SEM righting response time ([4]; drug 5 mg/kg po, 9-AC +10 mins (predrug)): 2.36 ± 0.208 s
- Mean ± SEM righting response time ([4]; drug 5 mg/kg po, 9-AC +30 mins): 2.21 ± 0.153 s
- Mean ± SEM righting response time ([4]; drug 5 mg/kg po, 9-AC +60 mins): 2.34 ± 0.386 s
- Mean ± SEM righting response time ([4]; drug 5 mg/kg po, 9-AC +120 mins): 1.33 ± 0.194 s
- Mean ± SEM righting response time ([4]; drug 5 mg/kg po, 9-AC +180 mins): 0.980 ± 0.220 s
- Mean ± SEM righting response time ([4]; drug 10 mg/kg po, 9-AC +10 mins (predrug)): 2.26 ± 0.195 s
- Mean ± SEM righting response time ([4]; drug 10 mg/kg po, 9-AC +30 mins): 3.28 ± 1.58 s
- Mean ± SEM righting response time ([4]; drug 10 mg/kg po, 9-AC +60 mins): 2.28 ± 0.347 s
- Mean ± SEM righting response time ([4]; drug 10 mg/kg po, 9-AC +120 mins): 1.41 ± 0.190 s
- Mean ± SEM righting response time ([4]; drug 20 mg/kg po, 9-AC +10 mins (predrug)): 2.27 ± 0.260 s
- Mean ± SEM righting response time ([4]; drug 20 mg/kg po, 9-AC +60 mins): 1.43 ± 0.294 s
- Mean ± SEM righting response time ([4]; drug 20 mg/kg po, 9-AC +120 mins): 0.949 ± 0.131 s
- Mean ± SEM righting response time ([4]; drug 40 mg/kg po, 9-AC +10 mins (predrug)): 2.61 ± 0.088 s
- Mean ± SEM righting response time ([4]; drug 40 mg/kg po, 9-AC +60 mins): 0.913 ± 0.0507 s
- Mean ± SEM righting response time ([4]; drug 40 mg/kg po, 9-AC +120 mins): 0.746 ± 0.0699 s
- Mean ± SEM righting response time ([4]; drug 40 mg/kg po, 9-AC +180 mins): 0.583 ± 0.0606 s

Structure (SMILES): CNCC[C@H](Oc1cccc2ccccc12)c1cccs1 [Duloxetine, duloxetine]
- Treated patients with nausea (patients; treated patients): 20-40%

Structure (SMILES): Cc1cc(O)cc(C)c1OCC(C)N (stereo not shown) [Para-hydroxymexiletine]
- Sodium channel inhibitory activity retained relative to the parent molecule (sodium channel): around 25%

Structure (SMILES): CC(C)C[C@H](CN)CC(=O)O [pregabalin]
- Patients with dizziness and somnolence (patients; patients treated at the higher doses): up to 30%
